Key:
[1] = tested on: epithelioid cervix carcinoma (HeLa); assay: MTT cytotoxicity assay; assay type: cell-based; settings: Homo sapiens, 24 h exposure, mean ± SD of triplicate
[2] = tested on: mammary gland cancer (MCF-7); assay: MTT cytotoxicity assay; assay type: cell-based; settings: Homo sapiens, MCF7, 24 h, 24 h exposure, mean ± SD of triplicate
Protocol: (§1) The cytotoxic effects of compounds 5a–m were evaluated using a standard MTT method against four different cancer cell lines, namely mammary gland cancer (MCF-7), hepatocellular carcinoma (HepG2), breast cancer (MDA-MB-231), and epithelioid cervix carcinoma (HeLa). […] These findings highlight the potential of these compounds as candidates for further development as cytotoxic agents for cancer treatment.
(§2) The cytotoxicity of compounds 5a–m was assessed against various cancer cell lines and one normal cell line using the described methodology. In brief, the cells were cultured in 96-well plates with a density of 1.0 × 10^4 cells per well, supplemented with 10% fetal bovine serum (FBS), an antibiotic cocktail, and RPMI 11,640 medium. The cells were then incubated for 48 h with 5% CO2 and 100% relative humidity at 37 °C. […] Following treatment, the addition of 20 µL of MTT solution was added to each well and incubation was continued for another 4 h, after which dimethyl sulfoxide (100 µL) was used to dissolve the resulting insoluble formazan. The absorbance was measured at 570 nm using a BioTek EXL 800 plate reader (Agilent Technologies, CA, USA). By comparing the absorbance of treated samples to untreated samples, the relative cell viability percentage was calculated as (A570 of treated samples/A570 of untreated sample) × 100. The IC50 values were determined based on triplicate measurements.

[3] = tested on: hepatocellular carcinoma (HepG2); assay: MTT cytotoxicity assay; assay type: cell-based; settings: Homo sapiens, 24 h exposure, mean ± SD of triplicate
Protocol: as §1, §2

[4] = tested on: breast cancer (MDA-MB-231); assay: MTT cytotoxicity assay; assay type: cell-based; settings: Homo sapiens, 24 h exposure, mean ± SD of triplicate
Protocol: as §1, §2

[5] = target: T1, EGFR (Homo sapiens, UniProt P00533); assay: In vitro protein kinase inhibition assay (ELISA kit); assay type: biochemical; settings: triplicate
T1 construct: purchased
T1 sequence (P00533 25-1210): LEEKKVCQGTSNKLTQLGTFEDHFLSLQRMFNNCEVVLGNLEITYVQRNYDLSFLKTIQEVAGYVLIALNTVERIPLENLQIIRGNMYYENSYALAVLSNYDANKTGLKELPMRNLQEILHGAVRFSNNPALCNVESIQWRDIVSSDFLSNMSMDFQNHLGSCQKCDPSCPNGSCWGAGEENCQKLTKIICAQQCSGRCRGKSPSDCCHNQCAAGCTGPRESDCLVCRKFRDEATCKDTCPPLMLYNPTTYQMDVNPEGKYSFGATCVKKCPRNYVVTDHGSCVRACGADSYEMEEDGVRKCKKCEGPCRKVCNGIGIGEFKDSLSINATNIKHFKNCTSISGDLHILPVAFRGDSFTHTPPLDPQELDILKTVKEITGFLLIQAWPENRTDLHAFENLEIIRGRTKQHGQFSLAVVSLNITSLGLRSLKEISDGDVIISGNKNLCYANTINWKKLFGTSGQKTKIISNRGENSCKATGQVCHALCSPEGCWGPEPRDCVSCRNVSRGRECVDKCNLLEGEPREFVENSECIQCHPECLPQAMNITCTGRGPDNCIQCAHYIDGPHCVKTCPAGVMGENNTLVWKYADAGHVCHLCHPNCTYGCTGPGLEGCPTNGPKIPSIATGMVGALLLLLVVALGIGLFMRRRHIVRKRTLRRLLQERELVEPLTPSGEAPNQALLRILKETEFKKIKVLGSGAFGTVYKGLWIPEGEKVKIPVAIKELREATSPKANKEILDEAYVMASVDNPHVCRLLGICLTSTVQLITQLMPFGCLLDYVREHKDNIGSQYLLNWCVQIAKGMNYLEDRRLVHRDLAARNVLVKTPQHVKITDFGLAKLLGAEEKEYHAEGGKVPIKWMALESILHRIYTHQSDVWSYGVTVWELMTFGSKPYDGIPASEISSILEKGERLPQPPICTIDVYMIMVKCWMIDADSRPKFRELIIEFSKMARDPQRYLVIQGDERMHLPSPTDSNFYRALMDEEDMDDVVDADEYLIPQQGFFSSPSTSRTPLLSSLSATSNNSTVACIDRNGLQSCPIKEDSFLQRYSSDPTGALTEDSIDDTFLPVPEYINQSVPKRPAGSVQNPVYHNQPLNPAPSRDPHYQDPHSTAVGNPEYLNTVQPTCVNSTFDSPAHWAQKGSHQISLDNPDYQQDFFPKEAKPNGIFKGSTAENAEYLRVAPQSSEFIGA
Protocol: (§3) In accordance with the documented procedures, fifteen derivatives of the synthesized compounds were evaluated for their inhibitory effects on EGFR, VEGFR-2, Her2, and CDK2 using specific human ELISA kits (Enzyme-Linked Immunosorbent Assay) designed for each respective kinase enzyme. Initially, various concentrations of the synthesized compounds were combined with specific antibodies for each enzyme in individual wells of a 96-well plate, followed by incubation at room temperature for 2.5 h. Subsequently, the plate was washed, and a biotin antibody (100 µL), prepared in-house, was added and allowed to incubate at ambient temperature for 1 h. After another washing step, a solution of streptavidin (100 µL) was introduced to each well and left for 45 min at room temperature. Following a third round of washing, a TMB Substrate (100 µL) reagent was applied to all wells and incubated for 30 min at room temperature. Finally, the reaction was terminated by adding 50 µL of a stop solution, and the absorbance was directly measured at 450 nm. A standard curve was constructed, illustrating the relationship between concentration (X-axis) and absorbance (Y-axis).

[6] = target: T2, Her2 (Homo sapiens, UniProt P04626); assay: as above; assay type: biochemical; settings: triplicate
T2 construct: purchased
T2 sequence (P04626 23-1255): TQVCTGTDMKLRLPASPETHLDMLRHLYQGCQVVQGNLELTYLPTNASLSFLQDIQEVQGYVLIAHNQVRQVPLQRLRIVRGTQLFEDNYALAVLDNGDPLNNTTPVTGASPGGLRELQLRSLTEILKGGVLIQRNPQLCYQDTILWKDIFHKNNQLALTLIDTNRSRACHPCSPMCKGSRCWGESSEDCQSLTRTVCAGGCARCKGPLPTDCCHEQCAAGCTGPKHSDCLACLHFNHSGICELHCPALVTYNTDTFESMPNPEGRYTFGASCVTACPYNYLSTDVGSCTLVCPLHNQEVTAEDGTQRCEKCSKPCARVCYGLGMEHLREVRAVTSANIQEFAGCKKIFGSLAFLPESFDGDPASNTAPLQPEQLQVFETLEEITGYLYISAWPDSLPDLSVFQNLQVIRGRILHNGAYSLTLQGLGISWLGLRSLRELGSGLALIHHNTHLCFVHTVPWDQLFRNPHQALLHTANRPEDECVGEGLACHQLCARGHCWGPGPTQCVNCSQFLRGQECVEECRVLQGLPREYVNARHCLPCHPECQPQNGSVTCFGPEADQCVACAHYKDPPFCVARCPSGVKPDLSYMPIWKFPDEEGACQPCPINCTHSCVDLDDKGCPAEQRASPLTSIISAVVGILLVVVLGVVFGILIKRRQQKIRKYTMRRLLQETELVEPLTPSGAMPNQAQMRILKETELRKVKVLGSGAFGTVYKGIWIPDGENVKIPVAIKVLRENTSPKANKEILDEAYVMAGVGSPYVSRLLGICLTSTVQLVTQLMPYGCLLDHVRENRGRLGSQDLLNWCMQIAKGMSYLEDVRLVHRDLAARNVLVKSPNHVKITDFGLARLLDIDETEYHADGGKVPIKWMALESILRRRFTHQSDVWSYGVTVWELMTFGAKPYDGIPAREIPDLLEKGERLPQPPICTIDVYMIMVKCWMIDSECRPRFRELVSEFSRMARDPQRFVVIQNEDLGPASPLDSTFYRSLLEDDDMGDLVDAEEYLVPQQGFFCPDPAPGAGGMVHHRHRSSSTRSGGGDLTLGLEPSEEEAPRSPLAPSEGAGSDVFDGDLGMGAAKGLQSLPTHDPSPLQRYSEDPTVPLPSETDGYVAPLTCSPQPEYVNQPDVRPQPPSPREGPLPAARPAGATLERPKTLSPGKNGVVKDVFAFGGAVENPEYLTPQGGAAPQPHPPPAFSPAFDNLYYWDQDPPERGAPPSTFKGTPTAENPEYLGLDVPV
Protocol: as §3

[7] = target: T3, VEGFR2 (Homo sapiens, UniProt P35968); assay: as above; assay type: biochemical; settings: triplicate
T3 construct: purchased
T3 sequence (P35968 20-1356): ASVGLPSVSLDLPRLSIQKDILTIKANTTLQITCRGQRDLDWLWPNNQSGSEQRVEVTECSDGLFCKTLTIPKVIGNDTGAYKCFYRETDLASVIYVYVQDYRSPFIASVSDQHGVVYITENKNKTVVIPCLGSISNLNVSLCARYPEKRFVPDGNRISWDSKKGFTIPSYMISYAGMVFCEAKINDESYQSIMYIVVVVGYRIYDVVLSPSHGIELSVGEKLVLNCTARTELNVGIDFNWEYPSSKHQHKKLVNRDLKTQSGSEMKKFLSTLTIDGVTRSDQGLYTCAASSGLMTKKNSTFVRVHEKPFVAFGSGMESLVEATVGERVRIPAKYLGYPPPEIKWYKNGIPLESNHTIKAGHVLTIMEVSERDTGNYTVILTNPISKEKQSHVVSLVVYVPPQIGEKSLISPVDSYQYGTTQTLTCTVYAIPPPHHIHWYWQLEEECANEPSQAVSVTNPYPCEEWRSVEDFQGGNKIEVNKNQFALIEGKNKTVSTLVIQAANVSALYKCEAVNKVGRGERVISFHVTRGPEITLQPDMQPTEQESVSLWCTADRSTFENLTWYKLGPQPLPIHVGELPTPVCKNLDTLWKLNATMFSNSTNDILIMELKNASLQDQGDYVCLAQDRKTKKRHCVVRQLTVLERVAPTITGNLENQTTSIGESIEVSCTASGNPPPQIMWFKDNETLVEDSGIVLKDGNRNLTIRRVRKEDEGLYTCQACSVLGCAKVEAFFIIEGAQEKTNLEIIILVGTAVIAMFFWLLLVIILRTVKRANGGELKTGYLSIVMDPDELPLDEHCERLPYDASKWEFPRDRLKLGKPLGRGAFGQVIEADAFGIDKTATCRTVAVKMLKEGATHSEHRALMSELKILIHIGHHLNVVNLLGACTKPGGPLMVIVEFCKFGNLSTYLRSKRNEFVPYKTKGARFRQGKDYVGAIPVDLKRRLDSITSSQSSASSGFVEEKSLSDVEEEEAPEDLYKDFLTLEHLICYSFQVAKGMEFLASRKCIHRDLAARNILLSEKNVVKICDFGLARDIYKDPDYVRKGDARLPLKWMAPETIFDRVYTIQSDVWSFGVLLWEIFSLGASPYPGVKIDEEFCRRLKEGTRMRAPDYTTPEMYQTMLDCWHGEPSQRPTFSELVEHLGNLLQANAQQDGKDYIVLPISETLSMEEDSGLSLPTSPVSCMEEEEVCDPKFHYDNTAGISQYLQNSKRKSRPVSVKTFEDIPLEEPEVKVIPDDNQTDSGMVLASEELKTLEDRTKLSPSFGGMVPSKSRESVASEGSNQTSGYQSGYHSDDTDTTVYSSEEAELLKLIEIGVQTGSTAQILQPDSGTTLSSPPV
Protocol: as §3

[8] = target: T4, CDK2 (Homo sapiens, UniProt P24941); assay: as above; assay type: biochemical; settings: triplicate
T4 construct: purchased
Protocol: as §3

[9] = tested on: four different cancer cell lines (MCF-7, HepG2, MDA-MB-231, HeLa); assay: MTT cytotoxicity assay, range over the four cell lines; assay type: cell-based; settings: read-out: IC50 values, range over the tested cancer cell lines
Protocol: as §1, §2

[10] = tested on: caspase-3; assay: Apoptotic protein levels assay (ELISA) in HepG2 cells; assay type: cell-based; settings: 24 h, ELISA, control 66.28 ± 4.66
Description: (§4) To validate the mechanism of cell death and the induction of apoptosis caused by compound 5k, the expression levels of some apoptotic proteins were investigated. […] Specifically, the levels of caspase-3 (6.9 folds higher than the control) and Bax (2.6 folds higher than the control) were higher in the group treated with 5k compared to the control group. Caspase-3 is a key enzyme involved in the execution of apoptosis, while Bax is a pro-apoptotic protein that promotes cell death. […] Bcl-2 is a protein that inhibits apoptosis, so the lower levels of Bcl-2 in the 5k treated group further support the notion that treatment with 5k may induce apoptosis in HepG2 cells. […] These findings may have implications for the development of novel therapies for diseases involving abnormal cell death, including cancer. Further studies are warranted in order to elucidate the underlying mechanisms of action of compound 5k and to assess its potential therapeutic applications.
(§5) The ELISA technique was employed to assess the impact of compound 5k on the alteration of protein levels associated with caspase-3, BAX, and Bcl-2. Specifically, the following ELISA kits were utilized: KHO1091 (InvitrogenTM, Grand Island, NY, USA) for caspase-3, EIA-4860 and EIA-4487 for BAX, (DRU International INC., Mountainside, NJ, USA), and 99-0042 (InvitrogenTM, Grand Island, NY, USA) for Bcl-2 for the respective measurements. The experimental procedures were conducted according to the instructions provided by the manufacturers and our recently published article. Initially, HepG2 cells were cultured in triplicate in 96-well plates. Following a 24-h incubation period, the cells were subjected to various concentrations of compound 5k, while a control group was treated with 0.1% DMSO (V/V). After an additional 24-h incubation, the absorbance levels were assessed using a BioTek Synergy H1 Multi-mode Reader (Agilent Technologies, Santa Clara, CA, USA) at wavelengths ranging from 450 to 650 nm.

[11] = tested on: Bcl-2; assay: as above; assay type: cell-based; settings: 24 h, ELISA, control 11.7 ± 0.36
Description: as §4, §5

[12] = tested on: Bax; assay: as above; assay type: cell-based; settings: 24 h, ELISA, control 67.09 ± 4.94
Description: as §4, §5

melting point	IC50 [5]	IC50 [6]	IC50 [7]	IC50 [8]	Structure (SMILES)	IC50 [1]	IC50 [2]	IC50 [3]	IC50 [4]	IC50 [9]	Protein Expression (Pg/mL) Caspase-3 [10]	Protein Expression (Pg/mL) Bcl-2 [11]	Protein Expression (Pg/mL) Bax [12]
309 °C	–	–	–	–	O=C(N/N=C/c1ccc(F)cc1)c1ccc(Nc2ncnc3[nH]ccc23)cc1 [Compound 5j, (E)-4-((7H-Pyrrolo[2,3-d]pyrimidin-4-yl)amino)-N’-(4-fluorobenzylidene)benzohydrazide]	71.7 ± 3.5 µM	66.4 ± 3.6 µM	42.6 ± 2.8 µM	58.5 ± 3.3 µM	–	–	–	–
–	1140 nM	335 nM	593 nM	2120 nM	O=C(N/N=C/c1ccccc1Cl)c1ccc(Nc2ncnc3[nH]ccc23)cc1 [Compound 5e, (E)-4-((7H-Pyrrolo[2,3-d]pyrimidin-4-yl)amino)-N’-(2-chlorobenzylidene)benzohydrazide]	53 ± 2.9 µM	55.3 ± 3.1 µM	29.1 ± 2.5 µM	48.1 ± 2.6 µM	29 to 59 µM	–	–	–
296 °C	–	–	–	–	O=C(N/N=C/c1cccc(Br)c1)c1ccc(Nc2ncnc3[nH]ccc23)cc1 [Compound 5c, (E)-4-((7H-Pyrrolo[2,3-d]pyrimidin-4-yl)amino)-N’-(3-bromobenzylidene)benzohydrazide]	85.5 ± 4.1 µM	80.7 ± 4 µM	48.5 ± 2.9 µM	75.8 ± 3.9 µM	–	–	–	–
–	406 nM	193 nM	1200 nM	599 nM	O=C(N/N=C/c1cc(Br)ccc1O)c1ccc(Nc2ncnc3[nH]ccc23)cc1 [Compound 5l, (E)-4-((7H-Pyrrolo[2,3-d]pyrimidin-4-yl)amino)-N’-(5-bromo-2-hydroxybenzylidene)benzohydrazide]	46.1 ± 2.4 µM	47.1 ± 2.5 µM	36.3 ± 2.6 µM	41.3 ± 2.4 µM	29 to 59 µM	–	–	–
–	–	–	–	–	CN[C@@H]1C[C@H]2O[C@@](C)([C@@H]1OC)n1c3ccccc3c3c4c(c5c6ccccc6n2c5c31)C(=O)NC4 [Staurosporine, reference compound]	–	–	–	–	–	684.6 ± 13.4 pg/mL	4.404 ± 0.09 pg/mL	276.9 ± 2.26 pg/mL
280 °C	–	–	–	–	O=C(N/N=C/c1cccc(C(F)(F)F)c1)c1ccc(Nc2ncnc3[nH]ccc23)cc1 [Compound 5m, (E)-4-((7H-Pyrrolo[2,3-d]pyrimidin-4-yl)amino)-N’-(3-(trifluoromethyl)benzylidene)benzohydrazide]	64.5 ± 3.4 µM	61.9 ± 3.3 µM	39.8 ± 2.7 µM	53.7 ± 3 µM	–	–	–	–
281 °C	–	–	–	–	O=C(N/N=C/c1cccc(Cl)c1)c1ccc(Nc2ncnc3[nH]ccc23)cc1 [Compound 5f, (E)-4-((7H-Pyrrolo[2,3-d]pyrimidin-4-yl)amino)-N’-(3-chlorobenzylidene)benzohydrazide]	> 100 µM	94.7 ± 4.9 µM	74.6 ± 3.9 µM	86.6 ± 4.6 µM	–	–	–	–
294 °C	–	–	–	–	O=C(N/N=C/c1ccccc1Br)c1ccc(Nc2ncnc3[nH]ccc23)cc1 [Compound 5b, (E)-4-((7H-Pyrrolo[2,3-d]pyrimidin-4-yl)amino)-N’-(2-bromobenzylidene)benzohydrazide]	90.6 ± 4.7 µM	83.9 ± 4.3 µM	53.2 ± 3.1 µM	79.2 ± 4.1 µM	–	–	–	–
295 °C	–	–	–	–	O=C(N/N=C/c1cccc(F)c1)c1ccc(Nc2ncnc3[nH]ccc23)cc1 [Compound 5i, (E)-4-((7H-Pyrrolo[2,3-d]pyrimidin-4-yl)amino)-N’-(3-fluorobenzylidene)benzohydrazide]	76.1 ± 3.7 µM	69.9 ± 3.8 µM	45 ± 2.8 µM	63.8 ± 3.5 µM	–	–	–	–
321 °C	–	–	–	–	O=C(N/N=C/c1ccc(Br)cc1)c1ccc(Nc2ncnc3[nH]ccc23)cc1 [Compound 5d, (E)-4-((7H-Pyrrolo[2,3-d]pyrimidin-4-yl)amino)-N’-(4-bromobenzylidene)benzohydrazide]	95.8 ± 5.1 µM	88.2 ± 4.5 µM	62.4 ± 3.5 µM	81.5 ± 4 µM	–	–	–	–
–	–	–	–	–	CCN(CC)CCNC(=O)c1c(C)[nH]c(/C=C2\C(=O)Nc3ccc(F)cc32)c1C [Sunitinib, reference compound]	21.8 ± 1.7 µM	–	–	–	–	–	–	–
–	636 nM	206 nM	1040 nM	1020 nM	O=C(N/N=C/c1ccccc1F)c1ccc(Nc2ncnc3[nH]ccc23)cc1 [Compound 5h, (E)-4-((7H-Pyrrolo[2,3-d]pyrimidin-4-yl)amino)-N’-(2-fluorobenzylidene)benzohydrazide]	49.9 ± 2.8 µM	52.4 ± 2.9 µM	33.2 ± 2.4 µM	45.2 ± 2.5 µM	29 to 59 µM	–	–	–
314 °C	–	–	–	–	O=C(N/N=C/c1ccc(Cl)cc1)c1ccc(Nc2ncnc3[nH]ccc23)cc1 [Compound 5g, (E)-4-((7H-Pyrrolo[2,3-d]pyrimidin-4-yl)amino)-N’-(4-chlorobenzylidene)benzohydrazide]	79.7 ± 3.9 µM	73.3 ± 3.9 µM	51.9 ± 3 µM	67.6 ± 3.7 µM	–	–	–	–
294 °C	–	–	–	–	O=C(N/N=C/c1ccccc1)c1ccc(Nc2ncnc3[nH]ccc23)cc1 [Compound 5a, (E)-4-((7H-Pyrrolo[2,3-d]pyrimidin-4-yl)amino)-N’-benzylidenebenzohydrazide]	68.2 ± 3.3 µM	64.9 ± 3.6 µM	43.1 ± 2.7 µM	56.2 ± 3.2 µM	43.1 to 68.2 µM	–	–	–
